{
  "source": "paper PMC12459020",
  "about": "“Chemical Probes that Target a Dissociative LuxR-Type Quorum Sensing Receptor in Gram-Negative Bacteria” (ACS Chemical Biology, 2025)",
  "key": {"EsaR [1]": {"target": "T1, EsaR (Pantoea stewartii subsp. stewartii, UniProt P54293)", "T1 construct": "expressed in transfected cells; host or cells: E. coli JLD271 (K12 ΔsdiA), arabinose-induced pJN105-esaR", "T1 sequence (P54293 whole entry)": "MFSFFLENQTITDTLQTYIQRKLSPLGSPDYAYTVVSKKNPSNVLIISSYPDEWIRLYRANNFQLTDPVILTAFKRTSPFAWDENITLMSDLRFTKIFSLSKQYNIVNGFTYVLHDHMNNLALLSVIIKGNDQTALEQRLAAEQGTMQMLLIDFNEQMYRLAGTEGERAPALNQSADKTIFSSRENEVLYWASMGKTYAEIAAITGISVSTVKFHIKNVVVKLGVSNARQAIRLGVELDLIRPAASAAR", "experiment": "P. stewartii ESN51 (ΔesaI) GFP reporter with EsaR-repressed promoter (pesaR)", "type": "cell-based", "excerpt": "(§1) EsaR transcriptional activation and repression were examined using E. coli and P. stewartii reporters (strains and plasmids listed in Table S1; see Methods section for assay details). […] We constructed reporters in E. coli based on previously reported EsaR reporters (Table S1). Each strain contained an EsaR expression plasmid (pJN105-esaR) and a reporter plasmid with either an EsaR-activated promoter (pesaS) or an EsaR-repressed promoter (pesaR) upstream of luxABCDE or GFP.\n(§2) Gibson assembly was used to create all constructs. Plasmid pJN105-esaR was created by amplifying esaR from pAC-esaR and inserting it into pJN105. pesaSlux was created by inserting pesaS, amplified from pPesaR-AC:gfp, into the pCS-pesaRlux backbone. The pesaR promoter was amplified from pCS-pesaRlux and inserted into the pPesaR-AC:gfp backbone to create pesaR:GFP. P. stewartii reporter strains were created by transforming pesaR:GFP or pPesaR-AC:gfp into ESN51 by conjugation using E. coli S17 λpir as the donor strain. See SI for details of E. coli ExpR2 reporter construction.\n(§3) Compound stocks were prepared and plated as described for E. coli reporter assays. […] Cultures were diluted to an OD600 of 0.05, and 198 μL was added to each well of a clear-bottom, black 96-well plate and incubated for 6 h at 28 °C (200 rpm) before reading fluorescence and OD600."}, "EsaR [2]": {"target": "T1, EsaR", "experiment": "P. stewartii ESN51 (ΔesaI) GFP reporter with EsaR-activated promoter (pesaS)", "type": "cell-based", "excerpt": "as §1, §2, §3"}, "P. stewartii ESN51": {"test_system": "P. stewartii ESN51", "type": "cell-based, Pantoea stewartii", "details": "OD600; 100 µM–1 mM tested", "excerpt": "We were curious whether the EsaR agonists identified in the E. coli reporters were also active in EsaR’s native host organism. In past studies, some E. coli LuxR-type receptor reporters have yielded EC50 values for exogenous ligands that differ by orders of magnitude relative to reporters constructed in native bacteria. Overexpression of LuxR-type receptors in E. coli has been proposed to lead to increased DNA binding and an overestimation of associative receptor sensitivity to agonists, as measured with lower EC50 values. However, because dissociative LuxR-type receptors bind to DNA in the absence of ligand, high receptor expression could instead lead to an underestimate of agonism. To account for any unintended effects of the E. coli genetic background and test compound activity at native levels of EsaR, we created genetic reporters in P. stewartii (see above and Methods section for details).\nSupporting Information — Stoutland et al. […]\ninteresting that constitutive activituy (uninduced) from pesaR promoter is so much 2 4 6 […]\nESN51 pesaR-AC:GFP ESN51 pesaR:GFP\nFigure S1. Luminescence inhibition, dynamic range, and growth of reporter strains. […]\n(also on this page, place not known: 102 104 106 percent activation (GFP/OD600 - JLD)/3OC6 Normalized luminescence ✱✱✱✱✱✱✱✱ controls GFP/OD600 pesaS OD600 GAF 0.3 0.4 OD600 1mM 300µM)"}, "[3]": {"experiment": "Solubility remark on supplementary figure page", "type": "physicochemical", "details": "stray annotation on SI page 6"}, "EsaR [4]": {"target": "T1, EsaR", "experiment": "cell-based", "how_it_was_run": "(§4)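 E. coli carrying arabinose-induced esaR plus pesaS (activated) or pesaR (repressed) promoter fused to lux or GFP; P. stewartii ESN51 GFP reporters also used.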"}, "EsaR [5]": {"target": "T1, EsaR", "experiment": "cell-based", "how_it_was_run": "as §4", "remark": "listed apart in the source"}},
  "data": [
    {"smiles": "O=C1OCC[C@@H]1NS(=O)(=O)c1ccc(Cl)c(F)c1", "note": "[GAF 64, 3-F, 4-Cl BSHL]", "values": [
      {"measurement": "EC50", "setting": "EsaR [1]", "result": 6.7, "unit": "µM"},
      {"measurement": "EC50", "setting": "EsaR [2]", "result": 2.7, "unit": "µM"},
      {"measurement": "growth inhibition in P. stewartii ESN51 reporters", "setting": "P. stewartii ESN51", "result": "Growth inhibition"}
    ]},
    {"smiles": "O=C(N[C@H]1CCOC1=O)c1ccc(Cl)c(Cl)c1", "note": "[GAF 58]", "values": [
      {"measurement": "solubility remark", "setting": "[3]", "result": "slighly insoluble"},
      {"measurement": "EsaR agonism at 100 μM (bound stated in text)", "setting": "EsaR [4]; 100 μM, E. coli EsaR reporter", "result": "less than 50%"}
    ]},
    {"smiles": "O=C1OCC[C@@H]1NS(=O)(=O)c1ccc(Br)cc1", "note": "[GAF 35]", "values": [
      {"measurement": "EC50", "setting": "EsaR [4]", "result": 23, "unit": "µM"},
      {"measurement": "EC50", "setting": "EsaR [1]", "result": 27, "unit": "µM"},
      {"measurement": "EC50", "setting": "EsaR [2]", "result": 24, "unit": "µM"},
      {"measurement": "EC50", "setting": "EsaR [5]", "result": 23, "unit": "µM"},
      {"measurement": "growth inhibition in P. stewartii ESN51 reporters", "setting": "P. stewartii ESN51", "result": "Growth inhibition"}
    ]}
  ]
}
